How the values were obtained:
[1] = Brain penetration (Kp,uu) in CD-1 mice after single IV bolus, with plasma and brain binding by equilibrium dialysis; assay type: in vivo; conditions: mouse, brain and plasma (unbound brain/unbound plasma), male CD-1 mice, single IV bolus 1 mg/kg
Procedure: The compounds disclosed herein were tested on CD-1 mice for brain penetration (Kp, uu) according to the following procedures.
Nine male CD-1 mice were administered TEST COMPOUND by single intravenous bolus administration at 1 mg/kg. The vehicle used for IV study was 5% DMSO, 5% solutol, 20% PEG300 and 70% water. The detailed dosing and sampling regimens are described in the following tables.
The body weights were in the range from 28.81 to 31.25 g for males on the first dosing day. All animals received a single intravenous bolus administration of TEST COMPOUND from the tail vein.
Each blood collection (about 0.06 mL per time point) was performed from saphenous vein of each animal into pre-chilled commercial K2-EDTA tubes as anti-coagulant and placed on wet ice until centrifugation.
Brain tissue was homogenized using homogenizing buffer (15 mM PBS (pH7.4): MeOH=2:1) at the ratio of 1:9 (1 g tissue with 9 mL buffer, the dilution ratio is 10). The tissue homogenate was kept at −60° C. or lower until LC-MS/MS analysis.
The concentrations of TEST COMPOUND in plasma and brain were determined by using an LC-MS/MS method.
The plasma and brain concentration of TEST COMPOUND in study animals was subjected to a non-compartmental pharmacokinetic analysis by using the Phoenix WinNonlin software program (version 6.3 or above, Pharsight). The linear/log trapezoidal rule was applied in obtaining the PK parameters.
Mouse Kp, uu=(% free in mouse brain*concentration in mouse brain)/(% free in mouse plasma*concentration in mouse plasma)
(§1) The dialysis apparatus was assembled according to the manufacturer's instruction. Each Cell was filled with 120 μL of spiked plasma sample and dialyzed against equal volume of dialysis buffer (PBS). The assay was performed in duplicate. The dialysis plates were sealed and incubated in an incubator at 37° C. with 5% CO2 and rotated at 100 rpm for 6 hours. At the end of incubation, the seals were removed and 50 μL of samples from both buffer and plasma chambers were transferred to a 96-well plate.
as §1, with “with 150” for “with 120”, “of brain homogenate” for “of spiked plasma”, “and brain homogenate” for “and plasma”, “transferred into separate tubes on” for “transferred to”, “a” for “a 96-well”

[2] = system: Caco-2 cells; test: Caco-2 bidirectional permeability; assay type: in vitro ADME; conditions: for Caco-2 ER: Efflux Ratio=Papp(BA)/Papp(AB); for Caco-2 A2B (10^−6 cm/s): apical to basolateral; for Caco-2 A2B (10^−6 cm/s) / Caco-2 B2A (10^−6 cm/s): 2 hours, pH 7.4; for Caco-2 B2A (10^−6 cm/s): basolateral to apical
Method in brief: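 Caco-2 monolayers were grown 21–28 days on PET inserts and run in duplicate in HBSS with 10 mM HEPES, pH 7.4. Test compound was dosed bidirectionally at […] for 2 h at 37 °C; quantification was by LC-MS/MS. Papp and efflux ratio (B-A/A-B) were calculated, with lucifer yellow monolayer integrity checks.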

[3] = molecular target: T1, wt human LRRK2, catalytic site (Homo sapiens, UniProt Q5S007); test: TR-FRET LanthaScreen Tb Kinase Activity Assay, LRRK2 inhibition; assay type: biochemical; conditions: 2 nM wt human LRRK2, 400 nM peptide, 38 μM ATP
T1 construct: wt human LRRK2, catalytic site, catalytic site (ThermoFisher/USA); purchased ThermoFisher
T1 sequence (Q5S007 1879-2138 limits assumed): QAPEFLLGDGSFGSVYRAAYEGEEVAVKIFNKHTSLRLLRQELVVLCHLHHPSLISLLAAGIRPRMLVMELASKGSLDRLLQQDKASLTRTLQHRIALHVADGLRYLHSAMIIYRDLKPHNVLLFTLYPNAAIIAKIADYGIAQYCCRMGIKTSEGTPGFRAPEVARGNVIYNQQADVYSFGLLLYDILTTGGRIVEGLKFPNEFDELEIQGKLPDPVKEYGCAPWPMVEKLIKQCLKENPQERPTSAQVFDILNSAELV
Method in brief: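 Fluorescein-ERM (LRRKtide) peptide (400 nM) phosphorylated by 2 nM wt human LRRK2 catalytic site with 38 μM ATP in 1× Kinase Buffer A, 120 min at room temperature after 15 min compound–kinase preincubation. EDTA plus Tb-anti-pLRRKtide antibody added, read after 60 min; inhibition from TR-FRET emission ratios.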

| SMILES | Kp uu [1] | Caco-2 ER [2] | Caco-2 B2A (10^−6 cm/s) [2] | IC50 [3] [nM] | Caco-2 A2B (10^−6 cm/s) [2] |
| --- | --- | --- | --- | --- | --- |
| Cc1n[nH]c2c1N=C(c1c(F)cccc1F)Nc1ccc(N3CCO[C@H](C(C)(C)O)C3)cc1-2 (single isomer, unassigned) [Example 36] | < 0.1 | L (L (Likely)”: ER≥2.5) | H (H (High permeability)”: A2B (B2A)>5) | 1 to 100 | M (M (Moderate permeability)”: 1≤A2B (B2A)≤5) |
| Cc1n[nH]c2c1N=C(c1c(F)cccc1F)Nc1cnc(N3C[C@@H]4C[C@H]3CO4)cc1-2 [Example 6, (1S,4S)-5-[8-(2,6-difluorophenyl)-5-methyl-3,4,7,9,12-pentazatricyclo[8.4.0.02,6]tetradeca-1(10),2(6),4,7,11,13-hexaen-13-y1]-2-oxa-5-azabicyclo[2.2.1]heptane] | < 0.1 | L (L (Likely)”: ER≥2.5) | H (H (High permeability)”: A2B (B2A)>5) | 1 to 100 | M (M (Moderate permeability)”: 1≤A2B (B2A)≤5) |
| [2H]C([2H])([2H])c1n[nH]c2c1N=C(c1c(F)cccc1F)Nc1cnc(N3CCO[C@H](C)C3)cc1-2 [Example 27, (2R)-4-[8-(2,6-difluorophenyl)-5-(trideuteriomethyl)-3,4,7,9,12-pentazatricyclo[8.4.0.02,6]tetradeca-1(10),2(6),4,7,11,13-hexaen-13-y1]-2-methyl-morpholine] | < 0.1 | L (L (Likely)”: ER≥2.5) | H (H (High permeability)”: A2B (B2A)>5) | < 1 | H (H (High permeability)”: A2B (B2A)>5) |
| Cc1n[nH]c2c1N=C(c1c(F)cccc1F)Nc1cnc(-c3cnn(CC(F)F)c3)cc1-2 [Example 28, 13-[1-(2,2-difluoroethyl)pyrazol-4-y1]-8-(2,6-difluorophenyl)-5-methyl-3,4,7,9,12-pentazatricyclo[8.4.0.02,6]tetradeca-1(10),2(6),4,7,11,13-hexaene] | ≥ 0.1 | L (L (Likely)”: ER≥2.5) | H (H (High permeability)”: A2B (B2A)>5) | < 1 | M (M (Moderate permeability)”: 1≤A2B (B2A)≤5) |
| Fc1cccc(F)c1C1=Nc2cn[nH]c2-c2cc(N3CCOCC3)ncc2N1 [Example 33, 4-[8-(2,6-difluorophenyl)-3,4,7,9,12-pentazatricyclo[8.4.0.02,6]tetradeca-1(10),2(6),4,7,11,13-hexaen-13-yl]morpholine] | < 0.1 | L (L (Likely)”: ER≥2.5) | H (H (High permeability)”: A2B (B2A)>5) | < 1 | M (M (Moderate permeability)”: 1≤A2B (B2A)≤5) |
| Cc1n[nH]c2c1N=C(c1c(F)cccc1F)Nc1c-2cc(N2CCO[C@@H](CO)C2)nc1C [Example 37, (R)-(4-(5-(2,6-difluorophenyl)-3,7-dimethyl-1,6-dihydropyrazolo[4,3-d]pyrido[4,3-f][1,3]diazepin-9-yl)morpholin-2-y1)methanol] | < 0.1 | L (L (Likely)”: ER≥2.5) | H (H (High permeability)”: A2B (B2A)>5) | < 1 | M (M (Moderate permeability)”: 1≤A2B (B2A)≤5) |

Now from value to compound, other results behind:

| Kp uu [1] | Caco-2 ER [2] | Caco-2 B2A (10^−6 cm/s) [2] | IC50 [3] [nM] | SMILES | Caco-2 A2B (10^−6 cm/s) [2] |
| --- | --- | --- | --- | --- | --- |
| < 0.1 | L (L (Likely)”: ER≥2.5) | H (H (High permeability)”: A2B (B2A)>5) | < 1 | Fc1cccc(F)c1C1=Nc2c(Cl)n[nH]c2-c2cc(N3CCOCC3)ccc2N1 (single isomer, unassigned) [Example 35, 4-(3-chloro-5-(2,6-difluorophenyl)-1,6-dihydrobenzo[d]pyrazolo[3,4-f][1,3]diazepin-9-y1)morpholine] | H (H (High permeability)”: A2B (B2A)>5) |
| < 0.1 | L (L (Likely)”: ER≥2.5) | H (H (High permeability)”: A2B (B2A)>5) | < 1 | Cc1n[nH]c2c1N=C(c1c(F)cccc1F)Nc1c-2cc(N2CCO[C@@H](C(C)(C)O)C2)nc1C (single isomer, unassigned) [Example 39] | M (M (Moderate permeability)”: 1≤A2B (B2A)≤5) |
| < 0.1 | L (L (Likely)”: ER≥2.5) | H (H (High permeability)”: A2B (B2A)>5) | < 1 | Cc1n[nH]c2c1N=C(c1c(F)cccc1F)Nc1cnc(N3CCS(=O)(=O)CC3)cc1-2 [Example 2, 4-[8-(2,6-difluorophenyl)-5-methyl-3,4,7,9,12-pentazatricyclo[8.4.0.02,6]tetradeca-1(10),2(6),4,7,11,13-hexaen-13-y1]-1,4-thiazinane 1,1-dioxide] | L (L (Low permeability)”: A2B (B2A)<1) |
| < 0.1 | L (L (Likely)”: ER≥2.5) | H (H (High permeability)”: A2B (B2A)>5) | < 1 | [2H]C1([2H])OC([2H])([2H])C([2H])([2H])N(c2cc3c(cn2)NC(c2c(F)cccc2F)=Nc2c(C)n[nH]c2-3)C1([2H])[2H] [Example 14, 2,2,3,3,5,5,6,6-octadeuterio-4-[8-(2,6-difluorophenyl)-5-methyl-3,4,7,9,12-pentazatricyclo[8.4.0.02,6]tetradeca-1(10),2(6),4,7,11,13-hexaen-13-yl]morpholine] | H (H (High permeability)”: A2B (B2A)>5) |
| < 0.1 | L (L (Likely)”: ER≥2.5) | H (H (High permeability)”: A2B (B2A)>5) | < 1 | Cc1n[nH]c2c1N=C(c1c(F)cccc1F)Nc1cnc(N3CCC[C@@H](C#N)C3)cc1-2 [Example 18, (3R)-1-[8-(2,6-difluorophenyl)-5-methyl-3,4,7,9,12-pentazatricyclo[8.4.0.02,6]tetradeca-1(10),2(6),4,7,11,13-hexaen-13-yl]piperidine-3-carbonitrile] | M (M (Moderate permeability)”: 1≤A2B (B2A)≤5) |
| < 0.1 | L (L (Likely)”: ER≥2.5) | H (H (High permeability)”: A2B (B2A)>5) | < 1 | [2H]C1([2H])OC([2H])([2H])C([2H])([2H])N(c2cc3c(cn2)NC(c2c(F)cccc2F)=Nc2cn[nH]c2-3)C1([2H])[2H] [Example 20, 2,2,3,3,5,5,6,6-octadeuterio-4-[8-(2,6-difluorophenyl)-3,4,7,9,12-pentazatricyclo[8.4.0.02,6]tetradeca-1(10),2(6),4,7,11,13-hexaen-13-yl]morpholine] | M (M (Moderate permeability)”: 1≤A2B (B2A)≤5) |
| < 0.1 | L (L (Likely)”: ER≥2.5) | H (H (High permeability)”: A2B (B2A)>5) | < 1 | Fc1cccc(F)c1C1=Nc2c(Cl)n[nH]c2-c2cc(N3CCOCC3)ncc2N1 [Example 23, 4-(3-chloro-5-(2,6-difluorophenyl)-1,6-dihydropyrazolo[4,3-d]pyrido[4,3-f][1,3]diazepin-9-yl)morpholine] | M (M (Moderate permeability)”: 1≤A2B (B2A)≤5) |
| < 0.1 | L (L (Likely)”: ER≥2.5) | H (H (High permeability)”: A2B (B2A)>5) | < 1 | C[C@H]1CN(c2cc3c(cn2)NC(c2c(F)cccc2F)=Nc2c(Cl)n[nH]c2-3)C[C@H](C)O1 [Example 26, (2S,6S)-4-(3-chloro-5-(2,6-difluorophenyl)-1,6-dihydropyrazolo[4,3-d]pyrido[4,3-f][1,3]diazepin-9-yl)-2,6-dimethylmorpholine] | H (H (High permeability)”: A2B (B2A)>5) |
